Measurements as given in patent publication US12583868B2, “JAK inhibitors and methods for synthesizing and using thereof” (GALDERMA HOLDING SA, priority 2020, dated 2026).
Where “and” joins values, the source holds several entries; their conditions need not be identical. Identical values can stand only once. Like-named read-outs stand apart in the source and are kept apart here.

What was measured:
[1] = Human skin ex vivo: flux through skin and dermis concentration (Franz cells); type: in vitro ADME; conditions: PG/H2O cream 1 mg/mL, human skin
44 targets = type: binding
Protocol: An in vitro pharmacology assay was conducted to assess the capability of the compounds to interact with different pharmacological targets when tested at 10 μM in different binding and enzyme/uptake assays. The included targets are indicative of potential effects in major organs and drug-drug interactions.
Compound binding was calculated as a % inhibition of the binding of a radioactively labelled ligand specific for each target. […] […].

[2] = Intrinsic clearance in hepatocytes, mouse; type: in vitro ADME, male balb-c mouse; conditions: 2.5 μM
Protocol: (§1) The intrinsic clearance was assessed in cryopreserved Hepatocytes obtained by Human livers donors of mix gender pooled together, male balb-c mouse, male Wistar Han rats and male Göttingen minipig, by looking at the parent compound disappearance. The incubations were performed using a final concentration of viable cells of 1 million/ml (viability above 70%) and test item of 2.5 μM. Incubations were followed up to 2 h. Aliquotes were withdrawn at different time points and reaction quenched with acetonitrile. After centrifugation the supernatant was analyzed by HPLC/MS to quantify the remaining amount of parent in comparison with time 0. The clearance was calculated by fitting the log of the percentage remaining with Graphpad Prism ver.7.

[3] = Intrinsic clearance in hepatocytes, minipig; type: in vitro ADME, male Göttingen minipig; conditions: 2.5 μM
Protocol: as §1

[4] = Systemic level in PD/IL6 mouse topical dose response; type: in vivo, BALB/c ByJ Rj mice; conditions: topical 10 mM
Protocol: Skin samples were harvested 15 min.

[5] = system: IL-6 induced pSTAT3 in TF-1 cells; assay: In vitro cellular pSTAT3 assay, IL-6 stimulated TF-1 cells; type: cell-based; conditions: Homo sapiens
Protocol: . The flasks were incubated overnight at 37° C., 5% CO2 then seeded in 96 well plates (TPP) at 150000 cells/well in 25 μL. Cells were treated with 5 IL/well of serially diluted compounds in DMSO (final DMSO concentration of 0.1%) and incubated for 30 min at 37° C. IL-6 (6 IL/well, 100 ng/ml as a final concentration in Opti-MEM, Thermofisher, PHC0066) was added to the cell plates and followed by a 30-min incubation at 37° C. Next, cells were lysed by adding 12 μl/well of 4× supplemented lysis buffer, incubated at 4° C. for 30 min under agitation. The samples were processed for the pSTAT3 detection as described by the manufacturer (MSD) with 25 μl of non-diluted cell lysates tested. Compounds were tested in simplicates over 10 three-step dilutions in order to determine their IC50 values.

SF logD = type: physicochemical
[6] = In vivo pharmacokinetic analysis in minipig (iv); set-up: species or system male Göttingen minipigs; conditions: iv 1 mg/kg
Protocol: (§2) Three male Göttingen minipigs. Compound was administered intravenously to fed animals at a target dose of 1 mg/kg, dose volume 1 mL/kg, in DMSO: hydroxypropyl-p-cyclodextrin 20% in phosphate buffer 60 mM pH 7 (5:95). Blood samples were collected at various time points. Blood samples were then assayed using a method based upon protein precipitation with acetonitrile followed by LC/MS/MS analysis. Non-compartmental methods were used for pharmacokinetic analysis of blood concentration versus time data.

[7] = Protein binding analysis (RED), human plasma; type: in vitro ADME; conditions: 5 μM
Protocol: (§3) The protein binding was assessed in plasma of Human, male balb-c mice, male Wistar Han rat, male Göttingen minipig by rapid equilibrium dialysis (RED) devices. After the plasma and buffer phosphate 50 mM pH7.4 were equilibrated at 37° C., the compound was added to plasma to reach a final concentration of 5 μM. An aliquot of plasma was withdrawn immediately. Equilibration under mild agitation was continued for 4 h. The plasma and buffer were sampled and samples were quenched with 4 volumes of acetonitrile and centrifuged. Supernatant was quantified in HPLC/MS/MS to calculate the recovery and the percentage of compound dissolved in the buffer (unbound) and bound to plasma proteins.

Chrom logD pH 7.4 = type: physicochemical
[8] = Intrinsic clearance in hepatocytes, rat; type: in vitro ADME, male Wistar Han rats; conditions: 2.5 μM
Protocol: as §1

[9] = Protein binding analysis (RED), minipig plasma; type: in vitro ADME; conditions: male, Göttingen, pH 7.4, read-out: minipig FU
Protocol: as §3

[10] = Protein binding analysis (RED), mouse plasma; type: in vitro ADME, male balb-c mice; conditions: 5 μM
Protocol: as §3

CYP2D6 = molecular target: T1, CYP2D6 (Homo sapiens, UniProt P10635); assay: CYP2D6 inhibition in human liver microsomes; type: in vitro ADME; conditions: dextromethorphan, CRL data
T1 construct: Human pooled liver microsomes of mixed gender (mainly Caucasian); from tissue; host or cells: pooled human liver microsomes
Protocol: After 5 min at 37° C. incubations were started with NADPH and prolonged for 10 min. The test compound was tested up to 30 μM keeping the final concentration of organic solvent was below 0.5%. The final concentration of microsomes was 0.1 mg/ml to ensure linearity during the time of the incubation. The reaction was quenched by adding 3 volume of acetonitrile. After centrifugation the supernatant was analyzed by HPLC/MS/MS for the formation of des-methyldextromethorphane selectively produced by CYP2D6 and 1′hydroxymidazolam or 6p-hydroxytestosterone, selectively produced by CYP3A. IC50 was calculated with Graphpad Prism v.7 comparing the amount of metabolite produced in presence of the test compound with that produced in absence of test item.

[11] = Protein binding analysis (RED), rat plasma; type: in vitro ADME, male Wistar Han rat; conditions: 5 μM
Protocol: as §3

[12] = Thermodynamic sol PG_H2O pH 6 2/8; type: physicochemical; conditions: amorphous material
IL6 = assay: hWB assay, IL6; type: cell-based, h
Kinetic aq sol = type: physicochemical
[13] = Intrinsic clearance in hepatocytes, human; type: in vitro ADME; conditions: 2.5 μM
Protocol: as §1

[14] = In vivo pharmacokinetic analysis in rat (iv); set-up: species or system male Wistar Han rat; conditions: iv 1 mg/kg
Protocol: as §2, with “One” for “Three”, “Wistar Han rat.” for “Göttingen minipigs.”, “animal” for “animals”, “volume: 2” for “volume 1”, “DMSO/hydroxypropyl-beta-cyclodextrin” for “DMSO: hydroxypropyl-p-cyclodextrin”, “data” for “data.”

T1 sequence (P10635 whole entry): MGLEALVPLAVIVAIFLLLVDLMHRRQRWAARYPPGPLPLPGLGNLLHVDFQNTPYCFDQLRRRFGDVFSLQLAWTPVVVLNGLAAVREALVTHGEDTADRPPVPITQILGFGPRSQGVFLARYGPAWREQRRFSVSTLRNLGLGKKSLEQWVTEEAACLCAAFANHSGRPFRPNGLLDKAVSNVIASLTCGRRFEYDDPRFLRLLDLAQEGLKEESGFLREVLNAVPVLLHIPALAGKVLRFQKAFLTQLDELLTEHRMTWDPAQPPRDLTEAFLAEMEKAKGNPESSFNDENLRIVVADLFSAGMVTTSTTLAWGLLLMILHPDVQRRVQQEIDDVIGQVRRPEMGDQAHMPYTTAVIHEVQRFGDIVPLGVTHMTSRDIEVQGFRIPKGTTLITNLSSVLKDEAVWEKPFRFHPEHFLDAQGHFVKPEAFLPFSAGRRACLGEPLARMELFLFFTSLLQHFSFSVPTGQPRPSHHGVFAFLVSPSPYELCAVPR

Question: Which “measured flux 6-24 hr” value [1] does the source give for `N#CC[C@H](C1CCCC1)n1cc(-c2ncnc3[nH]ccc23)cn1` [Ruxolitinib, reference compound] here?
Answer: 5.3 ng/cm^2/hr

Question: And the “Safety panel (Cerep): 44 targets % inh @10 microM Nb of targets > 50% inh” value (44 targets)?
Answer: 0/44

Question: What about the “Intr. Clear. mheps” value [2] of the same compound?
Answer: 150 microL/min/10 6 cells

Question: And the “Intr. Clear. minipig heps” value [3]?
Answer: 141 microL/min/10 6 cells

Question: And the “PD/IL6 mouse top DR 0.01-10 mM (PG/Acetone/Transcutol): Systemic level @10 mM - 2 hrs” value [4]?
Answer: 81 nM

Question: What about the IC50 ([5]; TF-1, read-out: Cellular Assay: IC50 IL6) of the same compound?
Answer: 0.008 µM

Question: What about the IC50 ([5]; TF-1, read-out: Free IC50) of the same compound?
Answer: 0.2 µM

Question: And the logD (SF logD)?
Answer: 2.3

Question: And the “iv PK minipig: ER” value [6]?
Answer: 68%

Question: And the clearance ([6]; male, Göttingen, whole blood, read-out: iv PK minipig: Cl)?
Answer: 1.14 L/h/kg

Question: What about the hFU [7] of the same compound?
Answer: 4%

Question: What about the chromatographic logD (Chrom logD pH 7.4) of the same compound?
Answer: 1.5

Question: And the “Intr. Clear. rheps” value [8]?
Answer: 300 microL/min/10 6 cells

Question: What about the fraction unbound at 4 h, 5 μM [9] of the same compound?
Answer: 0.25

Question: What about the mFU [10] of the same compound?
Answer: 7.7%

Question: What about the IC50 (CYP2D6) of the same compound?
Answer: > 30 µM

Question: And the rFU [11]?
Answer: 13%

Question: What about the “Thermodynamic sol PG_H2O pH 6 2/8” value [12] of the same compound?
Answer: 1 mM and 0.3 mg/mL

Question: And the IC50 (IL6)?
Answer: 6.9 µM

Question: And the Kinetic aq sol (Kinetic aq sol)?
Answer: 232/ND (no cristalline microM

Question: What about the “Intr. Clear. h heps” value [13] of the same compound?
Answer: 4.4 microL/min/10 6 cells

Question: And the “iv PK rat: ER” value [14]?
Answer: 51%

Question: And the clearance ([14]; male, Wistar Han, whole blood, read-out: iv PK rat: Cl)?
Answer: 2.4 L/h/kg
